For this test, the target named is T1, Wee1 (Homo sapiens, UniProt P30291).
T1 construct: purchased Eurofins
Briefly: In vitro enzymatic inhibitory activity, Wee1 kinase (Eurofins, [γ-33P]-ATP filter assay). Type of test: biochemical. The settings on record: 10 μM [γ-33P]-ATP, 40 min at room temperature. As for the experimental part:
The experimental tests were conducted at Eurofins, and the results were provided by the company.
After adding the mixed solution of Mg^2+ and ATP, the reaction started and the reaction solution was incubated at room temperature for 40 min. 3% phosphate buffer was added to stop the reaction. 10 μL of the reaction solution was filtered on a continuous filter P30, washed three times with 75 mM phosphate buffer, once with methanol, and 5 minutes each time. After drying, the value was read by scintillation counting method.

T1 sequence (P30291 whole entry): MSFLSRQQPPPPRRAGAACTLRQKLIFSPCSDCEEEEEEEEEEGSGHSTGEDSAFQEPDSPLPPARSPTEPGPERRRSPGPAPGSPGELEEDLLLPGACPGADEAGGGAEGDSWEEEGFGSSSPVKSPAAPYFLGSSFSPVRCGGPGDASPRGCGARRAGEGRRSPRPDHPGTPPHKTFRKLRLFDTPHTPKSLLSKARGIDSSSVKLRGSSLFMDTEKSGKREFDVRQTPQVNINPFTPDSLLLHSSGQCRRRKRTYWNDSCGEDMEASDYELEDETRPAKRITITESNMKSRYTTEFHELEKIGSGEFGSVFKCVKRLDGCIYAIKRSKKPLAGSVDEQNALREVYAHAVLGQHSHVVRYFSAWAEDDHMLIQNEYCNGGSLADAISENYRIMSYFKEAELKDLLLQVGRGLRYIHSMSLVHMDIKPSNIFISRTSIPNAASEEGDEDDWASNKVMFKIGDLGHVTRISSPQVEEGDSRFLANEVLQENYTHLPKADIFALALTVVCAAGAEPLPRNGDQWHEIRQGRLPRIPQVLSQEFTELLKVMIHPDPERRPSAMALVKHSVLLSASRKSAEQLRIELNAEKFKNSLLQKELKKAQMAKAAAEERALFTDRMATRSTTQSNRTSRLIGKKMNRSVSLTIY

The molecule `CC1(O)CC/C=C\Cn2c(=O)c3cnc(Nc4ccc(N5CCC(F)(F)CC5)cc4)nc3n2-c2cccc1n2` (centres unmarked) [Compound 3] came in with an IC50 of 42 nM.
`CC1(O)CC/C=C\Cn2c(=O)c3cnc(Nc4ccc(N5CCNCC5)cc4)nc3n2-c2cccc1n2` (centres unmarked) [Compound 6]: inhibition was half-maximal at 46 nM (IC50).
As for `CN1CCC2(CC1)CCN(c1ccc(Nc3ncc4c(=O)n5n(c4n3)-c3cccc(n3)C(C)(O)CC/C=C\C5)cc1)CC2` (centres unmarked) [Compound 7], the IC50 was found to be 54 nM.
With `CN(C)C1CCN(c2ccc(Nc3ncc4c(=O)n5n(c4n3)-c3cccc(n3)C(C)(O)CC/C=C\C5)cc2)CC1` (centres unmarked) [Compound 9], it took 41 nM to reach half-maximal inhibition (IC50).
Regarding `CN1CCCN(c2ccc(Nc3ncc4c(=O)n5n(c4n3)-c3cccc(n3)C(C)(O)CC/C=C\C5)cc2)CC1` (centres unmarked) [Compound 10], the IC50 was 49 nM.
Consider `CC1(O)CC/C=C\Cn2c(=O)c3cnc(Nc4ccc(N5CCCNCC5)cc4)nc3n2-c2cccc1n2` (centres unmarked) [Compound 11], for which 102 nM corresponded to half-maximal inhibition (IC50).
The value for `C[C@@]1(O)CC/C=C\Cn2c(=O)c3cnc(Nc4ccccc4)nc3n2-c2cccc1n2` [Compound 12] was 59 nM.
For `C[C@]1(O)CC/C=C\Cn2c(=O)c3cnc(Nc4ccccc4)nc3n2-c2cccc1n2` [Compound 13] the value was 265 nM.
In turn, `COc1cccc(Nc2ncc3c(=O)n4n(c3n2)-c2cccc(n2)[C@](C)(O)CC/C=C\C4)c1` [Compound 16] returned an IC50 of 60 nM.
The value for `COc1cccc(Nc2ncc3c(=O)n4n(c3n2)-c2cccc(n2)[C@@](C)(O)CC/C=C\C4)c1` [Compound 17] was 366 nM.
`CN(C)CCOc1ccc(Nc2ncc3c(=O)n4n(c3n2)-c2cccc(n2)[C@](C)(O)CC/C=C\C4)cc1` [Compound 18]: half-maximal inhibition (IC50) was put at 29 nM.
As for `CN(C)CCOc1ccc(Nc2ncc3c(=O)n4n(c3n2)-c2cccc(n2)[C@@](C)(O)CC/C=C\C4)cc1` [Compound 19], the IC50 was 72 nM.
The molecule `CN1CCC(c2ccc(Nc3ncc4c(=O)n5n(c4n3)-c3cccc(n3)[C@](C)(O)CC/C=C\C5)cc2)CC1` [Compound 20] displayed an IC50 of 173 nM.
`CN1CCC(c2ccc(Nc3ncc4c(=O)n5n(c4n3)-c3cccc(n3)[C@@](C)(O)CC/C=C\C5)cc2)CC1` [Compound 21]: the IC50 came out at 280 nM.
`CN1CCN(c2ccc(Nc3ncc4c(=O)n5n(c4n3)-c3cccc(n3)[C@](C)(O)CC/C=C\C5)cc2CO)CC1` [Compound 22] showed an IC50 of 16 nM.
In turn, `COCc1cc(Nc2ncc3c(=O)n4n(c3n2)-c2cccc(n2)[C@](C)(O)CC/C=C\C4)ccc1N1CCN(C)CC1` [Compound 23] gave an IC50 of 29 nM.
`CN1CC2CN(c3ccc(Nc4ncc5c(=O)n6n(c5n4)-c4cccc(n4)[C@](C)(O)CC/C=C\C6)cc3)CC2C1` (some centres unmarked) [Compound 24] gave an IC50 of 57 nM.
For `CN1CC2CN(c3ccc(Nc4ncc5c(=O)n6n(c5n4)-c4cccc(n4)[C@@](C)(O)CC/C=C\C6)cc3)CC2C1` (some centres unmarked) [Compound 25] the value was 78 nM; for `CN1CCc2ccc(Nc3ncc4c(=O)n5n(c4n3)-c3cccc(n3)[C@](C)(O)CC/C=C\C5)cc2C1` [Compound 26], 30 nM; for `CN1CCc2ccc(Nc3ncc4c(=O)n5n(c4n3)-c3cccc(n3)[C@@](C)(O)CC/C=C\C5)cc2C1` [Compound 27], 37 nM.
`C[C@@]1(O)CC/C=C\Cn2c(=O)c3cnc(Nc4cccc(F)c4)nc3n2-c2cccc1n2` [Compound 28] yielded an IC50 of 79 nM.
For `C[C@]1(O)CC/C=C\Cn2c(=O)c3cnc(Nc4cccc(F)c4)nc3n2-c2cccc1n2` [Compound 29], the IC50 came out at 444 nM.
`C[C@@]1(O)CC/C=C\Cn2c(=O)c3cnc(Nc4ccc(F)cc4)nc3n2-c2cccc1n2` [Compound 30] gave an IC50 of 67 nM.
In the case of `C[C@]1(O)CC/C=C\Cn2c(=O)c3cnc(Nc4ccc(F)cc4)nc3n2-c2cccc1n2` [Compound 31], the IC50 was found to be 323 nM.
`C[C@@]1(O)CC/C=C\Cn2c(=O)c3cnc(Nc4ccc(N5CCOCC5)cc4)nc3n2-c2cccc1n2` [Compound 32]: the IC50 amounted to 37 nM.
In turn, `C[C@]1(O)CC/C=C\Cn2c(=O)c3cnc(Nc4ccc(N5CCOCC5)cc4)nc3n2-c2cccc1n2` [Compound 33] registered an IC50 of 151 nM.
The value for `CN1CCN(c2cccc(Nc3ncc4c(=O)n5n(c4n3)-c3cccc(n3)[C@](C)(O)CC/C=C\C5)c2)CC1` [Compound 34] was 116 nM; that for `CN1CCN(c2cccc(Nc3ncc4c(=O)n5n(c4n3)-c3cccc(n3)[C@@](C)(O)CC/C=C\C5)c2)CC1` [Compound 35] was 276 nM.
For `CN(C)CCOc1cccc(Nc2ncc3c(=O)n4n(c3n2)-c2cccc(n2)[C@](C)(O)CC/C=C\C4)c1` [Compound 36] the value was 35 nM.
In the case of `CN1CCCN(c2ccc(Nc3ncc4c(=O)n5n(c4n3)-c3cccc(n3)[C@](C)(O)CC/C=C\C5)cc2)CC1` [Compound 37], it took 31 nM to reach half-maximal inhibition (IC50).
As for `CN(C)C1CCN(c2ccc(Nc3ncc4c(=O)n5n(c4n3)-c3cccc(n3)[C@](C)(O)CC/C=C\C5)cc2)CC1` [Compound 38], the IC50 is 48 nM.
Regarding `C[C@@]1(O)CC/C=C\Cn2c(=O)c3cnc(Nc4ccc(Cl)cc4)nc3n2-c2cccc1n2` [Compound 39], 54 nM corresponded to half-maximal inhibition (IC50).
For `C[C@@]1(O)CC/C=C\Cn2c(=O)c3cnc(Nc4ccc(OC5CC5)cc4)nc3n2-c2cccc1n2` [Compound 40], the midpoint of inhibition, the IC50, lay at 35 nM.
In turn, `C[C@@]1(O)CC/C=C\Cn2c(=O)c3cnc(Nc4ccc(N5CCC(F)(F)CC5)cc4)nc3n2-c2cccc1n2` [Compound 41] registered an IC50 of 16 nM.
`CN(C)CCOc1cccc(Nc2ncc3c(=O)n4n(c3n2)-c2cccc(n2)[C@@](C)(O)CC/C=C\C4)c1` [Compound 42] showed an IC50 of 221 nM.

Values taken from US11613545B2, “Macrocyclic compound serving as Wee1 inhibitor and applications thereof” (WUXI BIOCITY BIOPHARMACEUTICS CO., LTD., priority 2017, dated 2023).
